One assay deals with T1, A1AR (Homo sapiens, UniProt P30542).
T1 construct: expressed in transfected cells
T1 sequence (P30542 1-326): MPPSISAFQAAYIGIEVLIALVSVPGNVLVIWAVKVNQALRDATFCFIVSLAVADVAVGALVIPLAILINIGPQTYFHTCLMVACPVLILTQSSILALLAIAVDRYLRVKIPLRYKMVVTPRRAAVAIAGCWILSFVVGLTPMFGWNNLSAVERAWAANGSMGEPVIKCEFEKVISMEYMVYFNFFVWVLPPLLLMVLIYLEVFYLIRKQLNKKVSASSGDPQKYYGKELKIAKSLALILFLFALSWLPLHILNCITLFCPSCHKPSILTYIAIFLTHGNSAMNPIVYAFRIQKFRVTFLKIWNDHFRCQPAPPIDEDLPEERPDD
As to the kind of experiment: Competition radioligand binding, hA1AR ([3H]DPCPX). Conditions: [3H]DPCPX 0.5 nM; for Ki: HEK-293 membranes, 1 h 25 °C, mean ± SEM, read-out: Affinity, Ki, A1. The procedure: (§1) The affinity of the amine congeners and other antagonists was measured using standard radioligand binding assays for hA1, A2A and A3ARs (Table 1).[1],[13],[14],[22] Membranes of human embryonic kidney (HEK)293 cells expressing the AR of interest were used in the assay. Primary amine congeners 6a–6d containing spacers of 2–5 methylenes were similar in terms of hA2AAR affinity (Ki 6–9 nM), with the butylamino congener 6c displaying the highest A2AAR selectivity in the series. The affinity of this compound for the hA3AR was determined to be 6.0 μM, with only slightly higher hA1AR affinity. Homologation to 6 methylenes in compound 6e lowered A2AAR affinity. […] No dependence of the affinity on the chain length was evident when comparing AlexaFluor647 conjugates 9 and 10. […]
(§2) Radioligand binding assays: Cell membranes were prepared as reported.1
(§3) Binding assays were carried out using standard radioligands and membrane preparations from HEK-293 cells stably expressing the human (h) A1, A2A or A3ARs or mouse (m) A1, A2A or A3ARs. The radioligands used were: A1AR, [3H]8-cyclopentyl-1,3-dipropylxanthine 14; A2AAR, [3H]2; A3AR, [125I]N6-(4-amino-3-iodobenzyl)adenosine-5′-N-methyluronamide 16. The radioligand for archival A2AAR affinity data presented in Table 1 was [3H]2-[p-(2-carboxyethyl)phenyl-ethylamino]-5′-N-ethylcarboxamidoadenosine 15. Nonspecific binding was determined using 10 µM 8-[4-[[[[(2-aminoethyl)amino]carbonyl]methyl]oxy]phenyl]-1,3-dipropylxanthine 17 (A1AR and A2AAR) or 10 µM adenosine-5′-N-ethyluronamide 18 (A3AR). HEK-293 cells expressing recombinant mA1, A2A, or A3AR […]
(§4) Protein was determined as reported.2 In all the binding experiments, IC50 values and Ki values were calculated using GraphPad Prism software (San Diego, CA). Values are expressed as mean±SEM. […]
(§5) Med. Chem. Comm., 2015, 6:555-563.
(§6) 2. Bradford, M. M. A rapid and sensitive method for the quantitation of microgram quantities of protein utilizing the principle of protein -dye binding. Anal. Biochem. 1976, 72, 248-254.

Another assay concerns the target T2, A2AAR (Homo sapiens, UniProt P29274).
T2 construct: expressed in transfected cells
In words: Competition radioligand binding, hA2AAR ([3H]ZM241385 or [3H]CGS21680). The conditions noted are these: for fold weaker A2AAR affinity with respect to the parent amino derivative 6c / Ki: human A2AAR; for Ki: HEK-293 membranes, [3H]ZM241385 1.0 nM, 1 h 25 °C, mean ± SEM, read-out: Affinity, Ki, A2A. The procedure:
(§7) The affinity of the amine congeners and other antagonists was measured using standard radioligand binding assays for hA1, A2A and A3ARs (Table 1).[1],[13],[14],[22] Membranes of human embryonic kidney (HEK)293 cells expressing the AR of interest were used in the assay. Primary amine congeners 6a–6d containing spacers of 2–5 methylenes were similar in terms of hA2AAR affinity (Ki 6–9 nM), with the butylamino congener 6c displaying the highest A2AAR selectivity in the series. The affinity of this compound for the hA3AR was determined to be 6.0 μM, with only slightly higher hA1AR affinity. Homologation to 6 methylenes in compound 6e lowered A2AAR affinity. […] No dependence of the affinity on the chain length was evident when comparing AlexaFluor647 conjugates 9 and 10.
Fig. 1 Antagonist radioligand ([^3H]2, 1.0 nM) binding inhibition curves for the hA2AAR for four antagonist fluorescent conjugates. Compound numbers: MRS7322 9, MRS7395 10, MRS7396 11 and MRS7416 12. Membranes from HEK-293 cells expressing the hA2AAR were used, and their incubation was performed for 1 h at 25 °C. Results are expressed as the mean ± SEM.
(§8) Cell culture for membrane binding assays and flow cytometry: HEK-293 cells stably expressing the A2AAR were grown in Dulbecco’s Modified Eagle’s Medium (DMEM) with 10% FBS, 100 units/ml penicillin, […] streptomycin, 2 mM L-glutamine and 0.500 mg/mL G418 Sulfate (Geneticin). […]
as §2, §3, §4, §5, §6

The target of the next assay is T3, mA1AR (Mus musculus, UniProt Q60612).
T3 construct: expressed in transfected cells; host or cells: HEK-293
T3 sequence (Q60612 1-326): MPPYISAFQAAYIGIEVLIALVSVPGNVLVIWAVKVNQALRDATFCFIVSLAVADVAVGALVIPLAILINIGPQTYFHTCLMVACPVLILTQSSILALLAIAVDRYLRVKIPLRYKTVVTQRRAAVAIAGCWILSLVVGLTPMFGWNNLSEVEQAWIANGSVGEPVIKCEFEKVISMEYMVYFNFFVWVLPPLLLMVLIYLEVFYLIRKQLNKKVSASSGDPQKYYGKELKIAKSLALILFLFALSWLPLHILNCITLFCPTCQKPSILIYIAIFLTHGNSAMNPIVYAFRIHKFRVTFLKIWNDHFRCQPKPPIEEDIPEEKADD
As to the kind of experiment: Competition radioligand binding, mA1AR. Conditions: for inhibition at 10 µM: mouse A1AR, percent inhibition at 10 μM. The procedure:
as §1, §2, §3, §4, §5, §6

The target of another assay is T4, mA2AAR (Mus musculus, UniProt Q60613).
T4 construct: expressed in transfected cells; host or cells: HEK-293
T4 sequence (Q60613 whole entry): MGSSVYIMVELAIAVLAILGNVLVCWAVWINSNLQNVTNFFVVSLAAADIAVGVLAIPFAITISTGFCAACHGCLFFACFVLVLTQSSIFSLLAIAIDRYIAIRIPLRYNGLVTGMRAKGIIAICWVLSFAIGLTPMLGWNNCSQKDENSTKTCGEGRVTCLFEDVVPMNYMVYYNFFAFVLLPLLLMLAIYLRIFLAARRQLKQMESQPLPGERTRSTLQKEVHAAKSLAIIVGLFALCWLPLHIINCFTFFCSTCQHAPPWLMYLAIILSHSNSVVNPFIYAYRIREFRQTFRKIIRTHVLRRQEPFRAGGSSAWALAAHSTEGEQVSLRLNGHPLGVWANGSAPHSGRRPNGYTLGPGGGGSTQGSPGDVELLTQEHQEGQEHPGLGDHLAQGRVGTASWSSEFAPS
In words: Competition radioligand binding, mA2AAR. Conditions: mouse A2AAR, HEK-293 membranes, mean ± SEM; read-out: Affinity, Ki, A2A (m) (converted). The procedure:
as §7, §8, §2, §3, §4, §5, §6

A further assay concerns the target T5, mA3AR (Mus musculus, UniProt Q61618).
T5 construct: expressed in transfected cells; host or cells: HEK-293
T5 sequence (Q61618 1-319): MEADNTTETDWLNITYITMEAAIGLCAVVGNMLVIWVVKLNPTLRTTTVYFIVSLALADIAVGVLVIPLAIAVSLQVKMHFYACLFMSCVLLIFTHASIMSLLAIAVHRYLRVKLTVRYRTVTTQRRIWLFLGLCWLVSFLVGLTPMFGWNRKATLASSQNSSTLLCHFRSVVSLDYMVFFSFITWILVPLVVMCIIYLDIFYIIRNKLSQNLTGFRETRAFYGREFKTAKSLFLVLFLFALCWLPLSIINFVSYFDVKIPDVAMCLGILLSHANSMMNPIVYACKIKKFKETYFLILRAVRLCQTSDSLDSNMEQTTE
As to the kind of experiment: Competition radioligand binding, mA3AR. Conditions: for inhibition at 10 µM: mouse A3AR, percent inhibition at 10 μM, read-out: % inhib, A3 (m) (converted). The procedure:
as §1, §2, §3, §4, §5, §6

A word on the Ki: it is the equilibrium dissociation constant of an inhibitor or competing ligand from its target.

“And” between values parts separate entries of the source, which are not always exact repeats. Equal entries are not always repeated.

T2 sequence (P29274 whole entry): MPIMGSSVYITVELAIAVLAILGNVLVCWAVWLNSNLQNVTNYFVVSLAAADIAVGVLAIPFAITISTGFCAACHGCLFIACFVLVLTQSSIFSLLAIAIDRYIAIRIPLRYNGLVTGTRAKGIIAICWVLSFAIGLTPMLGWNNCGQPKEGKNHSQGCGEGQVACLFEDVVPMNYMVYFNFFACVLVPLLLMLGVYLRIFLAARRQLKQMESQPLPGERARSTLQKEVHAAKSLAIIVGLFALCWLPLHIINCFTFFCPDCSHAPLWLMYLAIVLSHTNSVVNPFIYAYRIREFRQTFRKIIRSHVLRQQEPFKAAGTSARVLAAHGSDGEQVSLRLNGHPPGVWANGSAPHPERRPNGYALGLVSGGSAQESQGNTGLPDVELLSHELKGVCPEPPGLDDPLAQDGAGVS

For `Nc1nc2c(cnn2CCCc2ccc(OCC(=O)NCCCCNC(=O)CCCCCNC(=O)COc3ccc(/C=C/C4=[N+]5C(=Cc6ccc(-c7cccs7)n6[B-]5(F)F)C=C4)cc3)cc2)c2nc(-c3ccco3)nn12` [compound 11], the inhibition at 10 µM at A1AR (percent inhibition at 10 μM) is 40%; at mA1AR, 0%; on mA3AR, 2%. In addition, the “fold weaker A2AAR affinity with respect to the parent amino derivative 6c” value at A2AAR was 4 fold. For the same compound, the Ki was 24.6 ± 17.6 nM at A2AAR; 2.1 nM and 2.09 nM at mA2AAR.

Turning to `CCN(CC)CC.CCN(CC)CC.N=c1ccc2c(-c3ccc(C(=O)NCCCCNC(=O)COc4ccc(CCCn5ncc6c5nc(N)n5nc(-c7ccco7)nc65)cc4)cc3C(=O)O)c3ccc(N)c(S(=O)(=O)O)c3oc-2c1S(=O)(=O)O` [compound 12], the inhibition constant Ki at A1AR was 1680 ± 470 nM; at A2AAR, 30.3 ± 4.9 nM; on mA2AAR, 585 nM. Moreover, the “fold weaker A2AAR affinity with respect to the parent amino derivative 6c” value on A2AAR is on record as 4 fold. For the same compound, the inhibition at 10 µM on mA1AR is 0%; on mA3AR, 5%.

For `N.Nc1nc2c(cnn2CCCc2ccc(OCc3ccc(S(=O)(=O)O)cc3)cc2)c2nc(-c3ccco3)nn12` [compound 13], the values for the Ki at A1AR, at A2AAR and at mA2AAR were 4190 ± 750 nM, 6.2 nM and 64.1 nM, respectively. Besides, the “A2AAR selectivity compared to the hA1AR” value on A2AAR (hA2AAR vs hA1AR binding) is 671 fold. Further, on A2AAR (hA2AAR vs hA3AR binding), the “A2AAR selectivity compared to the hA3AR” value was found to be 426 fold. The inhibition at 10 µM on mA1AR was 21%; on mA3AR, 4%. Also, the “binding to the mA1AR” value at mA1AR (result in words) is “insignificant”. Further, on mA3AR (result in words), the “binding to the mA3AR” value is on record as “insignificant”.

(Values after publication PMC5729930, “Bitopic fluorescent antagonists of the A2A adenosine receptor based on pyrazolo[4,3-e][1,2,4]triazolo[1,5-c]pyrimidin-5-amine functionalized congeners” (MedChemComm, 2017).)
